AC50 data for 99 compounds are collected here from PubChem BioAssay AID651703 (Broad Institute, 2012).

Each structure is given as a SMILES string.

The test addresses Transforming acidic coiled-coil-containing protein 3 (Homo sapiens) (UniProt Q9Y6A5). Put plainly: ARNT/TACC3 interaction disruptors, potency, confirmation, biochemical, AlphaScreen, cherry-picked samples (AID 651703).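 Also: TACC3 partner is the GST-tagged E629A mutant dimer; hits lower the signal meaning they disrupt ARNT binding to TACC3.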 The settings on record: AlphaScreen His-ARNT PAS-B / GST-TACC3 binding, luminescence. Background: Alpha assays give light when donor and acceptor beads are brought close together.
On to `Cc1cccc(CNC(=O)c2cc(-c3ccccc3)on2)c1`, for which the AC50 was 23.4 µM.

As for `Cc1ccc(S(=O)(=O)NC(=O)c2cc(C)n(CCCn3ccnc3)c2C)cc1`, the concentration at half-maximal activity (AC50) was 21.2 µM.

In the case of `O=C(Oc1c(CN2CCOCC2)cc(Cl)c2cccnc12)c1cccs1`, the AC50 was 15.2 µM.

As for `CC(NC1=CC(=O)c2cccnc2C1=O)C(O)c1ccccc1` (centres undefined), the AC50 is 15.5 µM.

On to `Cc1cccc(NC(=O)CCC(=O)N/N=C/c2ccc(O)cc2O)c1`, for which the AC50 was 22.4 µM.

With `OCC1CCN(Cc2ccc(O)c3ncccc23)CC1`, the AC50 is < 0.5 µM.

Regarding `Cc1ccc(NC(=O)CSc2ccc(-c3ccccn3)nn2)cc1F`, the AC50 is 3.98 µM.

On to `O=c1cc(-c2ccc(O)cc2)oc2c(O)c(O)c(O)c(O)c12`, for which the AC50 is 63 µM.

In the case of `COc1ccccc1-c1nnc(NC(=O)c2cccc(N3C(=O)CCC3=O)c2)o1`, the half-maximal activity concentration (AC50) was 29 µM.

Regarding `CN1CCN(C(c2ccccn2)c2cc(Cl)c3cccnc3c2O)CC1` (centres undefined), the AC50 is 3.98 µM.

Regarding `O=C(CN1CCCCCCC1)N/N=C/c1ccc(F)c(F)c1`, the AC50 is 65.8 µM.

In the case of `O=C(N/N=C/c1cc([N+](=O)[O-])ccc1O)c1ccncc1`, the AC50 is 1.01 µM.

On to `FC(F)(F)c1cnc(C(c2ccccn2)c2ncn[nH]2)c(Cl)c1` (centres undefined), for which the AC50 was 3.93 µM.

As to `O=C(CSc1ccc(-c2ccccn2)nn1)NC1CCCC1`, the half-maximal activity concentration (AC50) is 2.64 µM.

Consider `CCC(COC)Oc1cc(NCc2ccccc2)c2ncn(C(C)C)c2c1` (centres undefined), for which the AC50 is 23.9 µM.

For `O=C(N[C@H]1CC[C@@H](CCn2cc(-c3ccccn3)nn2)O[C@@H]1CO)c1ccc(F)cc1`, the AC50 is 14.8 µM.

Consider `Oc1cc(NCc2ccc(F)cc2)cc2cccnc12`, for which the AC50 was 8.9 µM.

Regarding `Cc1ccc2nc(-c3ccccn3)c(NC3CCCC3)n2c1`, the AC50 was 10.2 µM.

As to `O=C(N[C@H]1CC[C@H](CCn2cc(-c3ccccn3)nn2)O[C@@H]1CO)c1ccncc1`, the AC50 is 14.8 µM.

For `O=C(CSc1n[nH]c(-c2ccccn2)n1)Nc1ccc(Cl)cc1`, the AC50 is 2.08 µM.

As for `c1ccc(-c2cnc(Nc3nc(-c4ccccn4)nnc3-c3ccccc3)s2)cc1`, the AC50 was 0.916 µM.

With `O=C(CSc1ccc(-c2ccccn2)nn1)NCc1ccccc1`, the AC50 was 4.18 µM.

For `C=CCn1c(Cc2csc(N)n2)nnc1SCC(=O)Nc1ccc(C(=O)OCC)cc1`, the AC50 is 14.1 µM.

In the case of `COc1ccc(C2c3ccc(O)cc3Oc3ncn4nc(-c5ccccn5)nc4c32)cc1OC` (centres undefined), the AC50 was 52.5 µM.

`CCC(=O)NC(c1cc(Cl)c2cccnc2c1O)C1CC1` (centres undefined): the AC50 is 9.34 µM.

On to `O=C(Oc1ccc(Cl)c2cccnc12)c1cccnc1`, for which the AC50 is 9.58 µM.

For the compound `Oc1ccc(/C=N/Nc2ccc(Cl)nn2)c(O)c1O`, the concentration at half-maximal activity (AC50) is 0.702 µM.

For `CCCCC(=O)NC(c1ccc(N(C)C)cc1)c1ccc2cccnc2c1O` (centres undefined), the AC50 is 2.63 µM.

Turning to `Cc1ncc(CO)c(/C=N/NC(=O)c2cc(Br)ccc2O)c1O`, the AC50 was 8.86 µM.

In the case of `O=S(=O)(N[C@@H]1CC[C@H](CCn2cc(-c3ccccn3)nn2)O[C@H]1CO)c1cccc(F)c1`, the AC50 is 18.2 µM.

For the compound `C[C@H](CO)N1C[C@H](C)[C@@H](CN(C)S(=O)(=O)c2ccc(Cl)cc2)Oc2c(NC(=O)Nc3cccc4ccccc34)cccc2C1=O`, the AC50 was 62 µM.

For `c1ccc(-c2nnc(-c3ccccn3)nc2NCC2CCOCC2)cc1`, the AC50 was < 0.5 µM.

In the case of `c1ccc(-c2nnc(-c3ccccn3)nc2N2CCC(N3CCOCC3)CC2)cc1`, the AC50 was < 0.5 µM.

For the compound `CN1CCN(c2cc(-c3cc(O)c4ncccc4c3)ccn2)CC1`, the AC50 is 1.77 µM.

Turning to `Cc1c(C(=O)N(C)C)sc2nc(-c3ccccn3)[nH]c(=O)c12`, the AC50 was 2.78 µM.

For `O=C(CC(=O)N/N=C/c1ccccc1O)NCc1cccnc1`, the half-maximal activity concentration (AC50) is 32.8 µM.

On to `CSc1ccccc1NC(=O)CN(C)C(=O)COc1cccc2cccnc12`, for which the AC50 is 13.8 µM.

In the case of `O=c1[nH][nH]c(=O)c2nc(Nc3ccccc3)ncc12`, the AC50 was 66.1 µM.

As for `Cc1ncc(CO)c(/C=N/NC(=O)c2cc3c(s2)CCCC3)c1O`, the AC50 is 11.3 µM.

For the compound `Cc1cccc(OCc2nc(-c3ccccn3)n[nH]2)c1`, the AC50 was 5.94 µM.

`O=C(Oc1c(CN2CCOCC2)cc(Cl)c2cccnc12)c1ccccc1Br`: the AC50 was 10.3 µM.

`CCOC(=O)CSc1cccc2cccnc12`: the half-maximal activity concentration (AC50) was 4.59 µM.

In the case of `O=C(CSc1cccc2cccnc12)Nc1ccccc1F`, the AC50 was 19.5 µM.

For the compound `CC(C)C1Cc2c(sc3ncnc(NN)c23)CO1` (centres undefined), the AC50 was 7.67 µM.

Consider `COc1ccc(C2C(C#N)=C(N)Oc3c2ccc2cccnc32)cc1OC` (centres undefined), for which the AC50 is 58.6 µM.

In the case of `O=C(N/N=C/c1c(O)n(CCC2=CCCCC2)c(=O)[nH]c1=O)c1ccccc1`, the AC50 was 19.5 µM.

Take `Cc1cc(C)c(S(=O)(=O)N2CCOC2CNC(=O)C(=O)NCCCn2ccnc2)c(C)c1` (centres undefined): the AC50 was 5.58 µM.

With `O=C(Nc1nc(-c2ccccn2)cs1)c1cc(S(=O)(=O)N2CCOCC2)ccc1F`, the AC50 was 4.43 µM.

As to `COc1cc(CCNc2ccc3nnc(-c4ccccc4)n3n2)cc(OC)c1OC`, the AC50 was 10.6 µM.

As to `CCC1CCCCN1S(=O)(=O)c1ccc(NC(=O)CSc2ncccc2C(=O)O)cc1` (centres undefined), the AC50 was 15.4 µM.

As to `CN(CC(=O)O)Cc1nc2ccccc2[nH]1`, the AC50 was 7.77 µM.

As to `O=S(=O)(N[C@@H]1CC[C@H](CCn2cc(-c3ccccn3)nn2)O[C@H]1CO)c1cccc(Cl)c1`, the AC50 was 22 µM.

As to `CCCC(=O)NC(c1ccco1)c1cc([N+](=O)[O-])c2cccnc2c1O` (centres undefined), the AC50 is 8.21 µM.

In the case of `CC1CCCC(C)N1/N=C/c1ccc([N+](=O)[O-])cc1` (centres undefined), the AC50 is 17 µM.

Take `Cc1[nH]n(-c2ccccc2)c(=O)c1/C=N/NC(=O)c1cccc(F)c1`: the AC50 was 9.69 µM.

For `Cc1ccccc1-n1c(O)c(/C=N/NC(=O)c2ccncc2)c(=O)[nH]c1=O`, the AC50 was 11.5 µM.

For the compound `O=S(=O)(N[C@@H]1CC[C@@H](CCn2cc(-c3ccccn3)nn2)O[C@H]1CO)c1cccc(F)c1`, the AC50 is 21.5 µM.

In the case of `N[C@H]1CC[C@H](CCn2cc(-c3ccccn3)nn2)O[C@@H]1CO`, the AC50 was 1.03 µM.

With `COc1cc(C2C(C#N)=C(N)Oc3n[nH]c(-c4ccccn4)c32)cc(OC)c1OC` (centres undefined), the AC50 is 19.7 µM.

Regarding `COc1ccccc1CNC(=O)CSc1ccc(-c2ccccn2)nn1`, the AC50 was 9.48 µM.

As to `C[C@@H]1CCCCO[C@@H](CN(C)C(=O)Nc2cccc3ccccc23)[C@H](C)CN([C@@H](C)CO)C(=O)c2cc(NS(=O)(=O)c3cn(C)cn3)ccc2O1`, the AC50 is 56.4 µM.

As for `O=C(NCCCn1ccnc1)c1ccc2nccnc2c1`, the AC50 was 67.5 µM.

For `Cc1ccc(S(=O)(=O)CCC(=O)Nc2nc(-c3ccccn3)cs2)cc1`, the AC50 is 10.5 µM.

With `c1ccc(-c2nccc(-c3ccco3)n2)nc1`, the half-maximal activity concentration (AC50) is 11.2 µM.

`COCc1ccc(O)c2ncccc12`: the AC50 was 2.22 µM.

`O=C(Nc1nc(-c2ccccn2)cs1)C1COc2ccccc2O1` (centres undefined): the AC50 was 5.46 µM.

Regarding `c1ccc(CCNc2nc(-c3ccccn3)nnc2-c2ccccc2)cc1`, the AC50 was 0.513 µM.

For the compound `O=C(O)CSc1cc(NS(=O)(=O)c2cccc([N+](=O)[O-])c2)c2ccccc2c1O`, the AC50 is 48.1 µM.

Regarding `CC1OC(CC(=O)O)CC2=C1C(=O)c1c(O)cccc1C2=O` (centres undefined), the AC50 is 46.9 µM.

Regarding `O=S(=O)(N[C@H]1CC[C@H](CCn2cc(-c3ccccn3)nn2)O[C@H]1CO)c1cccc(F)c1`, the AC50 is 21.8 µM.

For the compound `CCN(CC)c1ccc(C(=C2C=CC(=[N+](CC)CC)C=C2)c2ccc(N(CC)CC)cc2)cc1`, the half-maximal activity concentration (AC50) is 0.734 µM.

In the case of `Oc1cccc(/C=N/Nc2ccc(Cl)nn2)c1O`, the AC50 is 1.5 µM.

`Cc1ccc(C(=O)Nc2nc(-c3ccccn3)cs2)s1`: the AC50 was 4.78 µM.

For the compound `Cc1nc(Nc2ccc(C(=O)O)cc2)nc(Nc2ccc(C(=O)O)cc2)c1[N+](=O)[O-]`, the AC50 is 22.1 µM.

Consider `O=C(Nc1nnc(-c2cccs2)o1)c1ccc(S(=O)(=O)N2CCOCC2)cc1`, for which the AC50 is 17.1 µM.

For `CSCc1cc(N(C)c2ccccc2)nc(-c2ccccn2)n1`, the AC50 was 5.86 µM.

Consider `N#Cc1ccc(C(=O)Nc2nnc(-c3ccccn3)o2)cc1`, for which the concentration at half-maximal activity (AC50) was 22.4 µM.

Take `c1ccc(-c2nc3ccccc3[nH]2)nc1`: the AC50 is 44 µM.

As to `O=S(=O)(N[C@H]1CC[C@@H](CCn2cc(-c3ccccn3)nn2)O[C@H]1CO)c1cccc(Cl)c1`, the AC50 is 23.4 µM.

Take `Cc1ccc(-n2c(SCC(N)=O)nnc2-c2ccccn2)cc1`: the AC50 was 34.7 µM.

As to `O=C(O)C1CCCCC1C(=O)NCCCn1ccnc1` (centres undefined), the AC50 is 54.4 µM.

Turning to `Cc1cc([N+](=O)[O-])cc(/C=N\NC(=O)C2COc3ccccc3O2)c1O` (centres undefined), the half-maximal activity concentration (AC50) is 36.3 µM.

`CSCC[C@H](NC(=O)OC(C)(C)C)C(=O)N/N=C/c1cccc2cccnc12`: the AC50 is 22.9 µM.

In the case of `CCOC(=O)N1CCN(S(=O)(=O)c2ccc(C(=O)Nc3nnc(C4CC4)o3)cc2)CC1`, the AC50 is 13.4 µM.

In the case of `Cc1cccnc1Nc1nc(-c2ccccn2)cs1`, the AC50 is 0.756 µM.

As to `Cc1cccc(CNc2nc(-c3ccccn3)nnc2-c2ccccc2)c1`, the half-maximal activity concentration (AC50) was < 0.5 µM.

Consider `N#CC1(c2ccccc2)CCN(Cc2ccc(O)c3ncccc23)CC1`, for which the AC50 was 3.66 µM.

On to `Oc1ccc(C2=Nn3c(nnc3-c3ccco3)SC2)cc1O`, for which the AC50 was 6.22 µM.

Consider `CN1CCN(C2CCN(Cc3ccc(O)c4ncccc34)CC2)CC1`, for which the AC50 is 2.3 µM.

For the compound `COc1ccc(NC(=O)CSc2ccc3nnc(-c4ccccn4)n3n2)cc1`, the AC50 was 26.2 µM.

On to `COC(=O)c1ccc(CSc2ccc3nnc(-c4ccccn4)n3n2)o1`, for which the AC50 was 17.4 µM.

On to `O=C(COC(=O)c1ccccn1)c1cccc(Br)c1`, for which the AC50 was 11.8 µM.

With `O=C(CSc1ccc2nnc(-c3ccccn3)n2n1)Nc1ccccc1C(F)(F)F`, the AC50 was 50.7 µM.

Turning to `c1ccc(-c2n[nH]c(-c3ccccn3)n2)cc1`, the AC50 is 11.6 µM.

Take `Cc1cccc(C)c1Nc1c(-c2ccccn2)nc2ccccn12`: the AC50 is 8.6 µM.

With `c1ccc(CCNc2nc(-c3ccccn3)nc3ccccc23)cc1`, the AC50 was 20.1 µM.

Take `NC(CO)C(=O)NNCc1ccc(O)c(O)c1O` (centres undefined): the AC50 was 13.3 µM.

Take `CC(=O)NC(c1cc(Cl)c2cccnc2c1O)C(C)C` (centres undefined): the half-maximal activity concentration (AC50) is 1.47 µM.

Take `Cc1ccn2c(Nc3ccccc3C)c(-c3ccccn3)nc2c1`: the AC50 is 3.69 µM.

For orientation: AC50 means the concentration giving half of the maximal activity seen.
